The text below walks through data of patent US12384775B2, “Pyrimid-2-yl-pyrazole compounds as IRAK inhibitors” (Rigel Pharmaceuticals, Inc., priority 2022, dated 2025).

The subject of assay [1] is TLR7-Induced TNF-α in Human Peripheral Blood Mononuclear Cells (PBMC). In words: TLR7-induced TNF-α in human PBMC (resiquimod). In kind it is cell-based. Conditions: resiquimod 0.1 μg/ml, read-out: Cell Assays IC50, TNFα (PBMC, resiquimod). The method, then: Human peripheral blood mononuclear cells (PBMC) were seeded at 100,000 cells per well in 100 μL of RPMI with 10% FCS and primed overnight with 8 ng/ml of IFN-β at 37° C., 5% CO2. Compound was serially diluted in DMSO from 2 mM in 3-fold dilutions, and then diluted 1:100 in RPMI 1640 complete media with 10% FBS (2× stock). The PBMCs were pre-incubated with test compound for 1 hour at 37° C., 5% CO2 by adding 100 μL of RPMI media containing 2× concentrated test compound per well (0.5% final DMSO concentration).
The PBMCs were stimulated with resiquimod (10 μL per well of 21× concentrated resiquimod solution in RPMI media to give a final concentration of 0.1 μg/ml) at 37° C., 5% CO2 for an additional 18 hours. 100 μL of supernatant per well was harvested to measure TNF-α. TNF-α was quantitated using DuoSet ELISA Kit per manufacturer's protocol.

The next assay addresses T1, IRAK4 (Homo sapiens, UniProt Q9NWZ3).
T1 construct: purchased Signalchem I12-10G-20
T1 sequence (Q9NWZ3 1-460): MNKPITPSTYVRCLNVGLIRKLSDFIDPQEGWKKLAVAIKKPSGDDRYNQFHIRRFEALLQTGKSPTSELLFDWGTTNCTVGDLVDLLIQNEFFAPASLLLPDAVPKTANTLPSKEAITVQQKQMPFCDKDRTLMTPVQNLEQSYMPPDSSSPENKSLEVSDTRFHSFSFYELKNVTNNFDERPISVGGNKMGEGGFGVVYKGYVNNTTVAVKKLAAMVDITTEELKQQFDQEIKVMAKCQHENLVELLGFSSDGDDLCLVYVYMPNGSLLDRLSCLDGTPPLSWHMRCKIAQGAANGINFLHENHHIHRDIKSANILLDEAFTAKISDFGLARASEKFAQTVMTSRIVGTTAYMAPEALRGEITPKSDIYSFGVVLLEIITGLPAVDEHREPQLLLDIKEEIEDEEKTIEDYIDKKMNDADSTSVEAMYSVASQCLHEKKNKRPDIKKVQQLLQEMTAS
The experiment in a line: IRAK4 Z'-LYTE assay. It is filed as biochemical. Conditions: for IC50: n = 1. On the procedure:
• Bar-coded Corning, low volume NBS, black 384-well plate (Corning Cat. #4514) • Test Compounds: The Test Compounds are screened in 1% DMSO (final) in the well. For 10 point titrations, 3-fold serial dilutions are conducted from 10 µM. • Peptide/Kinase Mixture: The 2×IRAK4/Ser/Thr 07 mixture is prepared in 50 mM HEPES pH 7.5, 0.01% BRIJ-35, 10 mM MnCl2, 1 mM EGTA, 2 mM DTT, 0.02% NaN3. • ATP Solution: All ATP Solutions are diluted to a 4× working concentration in Kinase Buffer (50 mM HEPES pH 7.5, 0.01% BRIJ-35, 10 mM MgCl2, 1 mM EGTA). ATP Km apparent is previously determined using a Z-LYTE® assay. • Development Reagent Solution: The Development Reagent is diluted 1:45000 in Development Buffer. General Method • 1. 100 nL—100× Test Compound in 100% DMSO • 2. […]—Kinase buffer • 3. 5 μL—2× Peptide/Kinase Mixture • 4. 2.5 μL—4×ATP Solution
The final 10 μL Kinase Reaction consists of 3.45-63.6 ng IRAK4 and 2 μM Ser/Thr 07 in 50 mM HEPES pH 7.5, 0.01% BRIJ-35, 5 mM MgCl2, 5 mM MnCl2, 1 mM EGTA, 1 mM DTT, 0.01% NaN3. • 5. 30-second plate shake • 6. 60-minute Kinase Reaction incubation at room temperature • 7. 5 μL—Development Reagent Solution • 8. 30-second plate shake • 9. 60-minute Development Reaction incubation at room temperature • 10. Read on fluorescence plate reader and analyze the data

For assay [2], the system named is TLR dependent cytokine release in human blood. The experiment in a line: Human whole blood assays, average of IL-6 Gard and TNFα LPS. It is filed as cell-based. Conditions: read-out: Human Whole Blood Assays (IC5050), Average. On the procedure: (§1) To assess the effect of whole blood on the potency of compound I-1 and Comparison-1, the compounds were evaluated for their inhibitory potential on TLR dependent cytokine release in human blood. Freshly drawn peripheral blood from healthy volunteers was incubated with test compound and stimulated overnight with LPS or Gardiquimod. The serum was isolated after centrifugation and TNF-α and IL-6 were measured by ELISA.

The subject of assay [3] is Gardiquimod-Induced IL-6 in Human Blood. In words: Gardiquimod-induced IL-6 in human whole blood. It is filed as cell-based. Conditions: Gardiquimod 4 μg/ml overnight, read-out: Human Whole Blood Assays (IC5050), IL-6 Gard. On the procedure: as §1
Whole blood of healthy volunteers was collected in Vacutainer containing Sodium Heparin and 40 μL of blood was plated to each well. Compound was serially diluted in DMSO from 2 mM in 3-fold dilutions, and then diluted 1:100 in media with 10% FBS. 50 μL of 2× compound per well in duplicate was added to each well and incubated for one hour. 10 μL Gardiquimod was added to each well at a final concentration of 4 μg/ml and cells were incubated overnight.
100 μL of PBS was added to each well and centrifuged for 10 minutes at 1000 RPM 25 μL of supernatant were taken, and IL-6 was measured by Luminex Flexmap 3d.

Assay [4] concerns TLR- and IL-1R-dependent cytokine production. The experiment in a line: Cell assays, average of IL-23 (THP-1), TNFα (PBMC), TNFα (DC). The following applies: Homo sapiens, average of the three cell assays. In kind it is cell-based. The source says:
To evaluate the effect of compound I-1 on TLR and IL-1R-dependent cytokine release, multiple cell types were isolated and stimulated in the presence of compound I-1 or Comparison-1.

For assay [5], the system named is LPS Induced TNF-α in Human Blood. In words: LPS induced TNF-α in human whole blood. In kind it is cell-based. The following applies: LPS 0.5 ng/ml overnight, read-out: Human Whole Blood Assays (IC5050), TNFα LPS. The method, then: as §1
Whole blood of healthy volunteers was collected in Vacutainer containing Sodium Heparin and plate 40 μL of blood to each well. Compound was serially diluted in DMSO from 2 mM in 3-fold dilutions, and then diluted 1:100 in media with 10% FBS. 50 μL of 2× compound was added per well in duplicate to each well and incubate for one hour. 10 μL LPS was added to each well at a final concentration of 0.5 ng/ml and allow cells to incubate overnight.
100 μL of PBS was added to each well and centrifuged for 10 minutes at 1000 RPM. 25 μL of supernatant were taken, and TNF-α was measured on Luminex Flexmap 3d.

In the case of `CCO[C@H]1CC[C@H](n2cc(NC(=O)c3csc(-c4cn[nH]c4)n3)c(-c3nc(F)ccc3F)n2)CC1` [Comparison-1, reference compound], the IC50 in assay [1] came out at 15 nM; at IRAK4 it was 15 nM; in assay [2], 1400 nM; in assay [3] it was 1400 nM; in assay [4], 32 nM; in assay [5] it was 1400 nM.

In general, EC50 refers to the concentration giving half of the maximal effect. Read a low EC50 as higher potency in that assay. Turning to `CCO[C@H]1CC[C@H](n2cc(NC(=O)c3csc(-c4cn[nH]c4)n3)c(-c3ncccn3)n2)CC1` [Compound I-1, N-(1-((1r,4r)-4-ethoxycyclohexyl)-3-(pyrimidin-2-yl)-1H-pyrazol-4-yl)-2-(1H-pyrazol-4-yl)thiazole-4-carboxamide], the IC50 came out at 3 nM in assay [1]; 6 nM against IRAK4; 174 nM in assay [2]; 124 nM in assay [3]; 5 nM in assay [4]; 224 nM in assay [5]. At IRAK4, the EC50 was 6 nM.
